Test results as given in PMC8253137, “Microbiota-derived butyrate is an endogenous HIF prolyl hydroxylase inhibitor” (Gut Microbes, 2021).

How the values were obtained:
murine colon tissue = assay: Rectal gavage in antibiotic-treated SCFA-depleted mice; format: in vivo; conditions: after antibiotics
Experimental: C57BL/6 mice were purchased from Jackson Laboratories. Animals were maintained and bred in standard housing conditions under 24 h/day, 7 days/week veterinary care available at the University of Colorado Anschutz Medical Campus (AMC) animal facility. All animal procedures were reviewed and approved by the Institutional Animal Care and Use Committee at AMC. 8 to 10-week-old male and female mice were pre-administered an antibiotic cocktail consisting of 1 mg/mL ampicillin, gentamicin, and neomycin, 0.5 mg/mL vancomycin, and 0.25 mg/mL metronidazole for 5 d ad libitum in addition to water control mice. Mice were then given 200 µL of tributyrin daily for three days using reusable feeding needles (18060–20, Fine Science Tools). On the third day, 4 h prior to sacrifice, select mice given tributyrin were rectally given 100 μL of 60 mM MCPA with plastic gavage tubes (FTP-20-38-50, Instech) inserted 1 cm into the rectum without surgical lubricant. Whole colon tissue at the site of the rectal gavage was collected for metabolite analysis, while colon whole tissue and epithelial scrapings upstream from the gavage site was collected for RNA and protein analysis. In the second butyrate reconstitution experiment, mice were rectally given 100 μL of 100 mM butyrate, 100 mM butyrate with 10 mM MCPA, 1.5 mM IOX2, or PBS control under anesthesia. Mice were then sacrificed 1 h after rectal supplementation and colon tissues collected for metabolite, mRNA, and protein analysis from the site of the rectal gavage.
TRIzol® reagent (ThermoFisher Scientific) was used to isolate total RNA from T84 cells. Mouse colon tissue samples were harvested into RNAlater™ (Invitrogen) and stored at 4°C for 48 h. Total RNA was isolated from the tissues using RNeasy Plus Mini Kit (Qiagen). cDNA was prepared using the iScript cDNA Synthesis Kit (Bio-Rad). Quantitative PCR analysis was performed using the Power SYBR™ Green master mix (Applied Biosystems) in a thermocycler. Fold change in expression of target mRNA relative to β-actin (ACTB) mRNA was calculated using the delta-delta Ct method. Primer sequences used are as follows: hBNIP3 – forward, 5′- […] −3′, reverse, 5′- […] −3′; hBNIP3L – forward, 5′- […] −3′, reverse, 5′- […] −3′; hGLUT1 – forward, 5′- […] −3′, reverse, 5′- […] −3′; hACTB – forward, 5′- […]-3′, reverse, 5′- […]-3′; mBnip3 – forward, 5′- […] −3′, reverse, 5′- […] −3′; mBnip3l – forward, 5′- […] −3′, reverse, 5′- […] −3′; mGlut1 – forward, 5′- […] −3′, reverse, 5′- […] −3′; and mActb – forward, 5′- […] −3′, reverse, 5′- […] −3′.
T84 cells were rinsed with PBS and collected and lysed in 200 µL of radioimmunoprecipitation assay (RIPA, 50 mM Tris-HCl pH 8.0, 1 mM EDTA, 1% Triton X-100, […], 0.5% sodium deoxycholate, 150 mM NaCl) buffer with protease inhibitors on ice. Mouse colon samples were harvested into 350 µL of RIPA buffer and flash frozen in liquid nitrogen. Samples were homogenized by sonication, and insoluble materials removed by centrifugation at 10,000 g for 5 min at 4°C. Protein quantity of the supernatant was determined using the Bradford reagent. Laemmli sample buffer was added to each sample. Samples (20 µg) were run and separated on 8% SDS-PAGE gels and transferred to polyvinylidene fluoride (PVDF) membranes. Membranes were blocked overnight at 4°C in Tris-buffered saline with 1% Tween-20 (TBS-T) and 5% milk. […]

T84 cells = assay: 2-OG levels in T84 cells; format: cell-based; conditions: 3 h
Experimental: T84 cells were cultured in 95% air with 5% CO2 at 37°C in standard media made of DMEM:F-12 supplemented with 10% calf serum, 1% penicillin/streptomycin, and 1% GlutaMAX™ (ThermoFisher Scientific) on 9.6 cm^2 6-well plates (ThermoFisher Scientific). Real-time oxygen sensing was done using the SensorDish Reader from Applikon Biotechnology as described previously with T84 cells plated on 0.33 cm^2 transwell inserts (Corning, 0.4 μm).[12] All MCPA treatments included a 2 h pretreatment with MCPA before treatment with butyrate.
Metabolites Extractions and HPLC-DAD: Cell and colon tissue metabolites were extracted and analyzed as previously described with minor variations.[61],[62] The metabolites were detected by absorption at wavelengths of 210, 254, and 280 nm, with their absorbance spectra and retention times verified by co-injection with authentic standards. Metabolites for HPLC-ESI MS analyses were resuspended in deionized water (pH 7.2).
HPLC-ESI MS: Analyses were performed on an Agilent Technologies 1260 Infinity II LC/MSD iQ with electrospray ionization (ESI) mass detection. Negative ion mass-to-charge ratios (m/z) were scanned from 50 to 500. The metabolite extracts were chromatographed using a Sepax Carbomix column (Pb-Np5:8%, 5 μm, non-porous, 4.6 × 300 mm) (mobile phase A: water; mobile phase B: acetonitrile; column temperature, 75°C). Chromatographic separation was performed using a combination of isocratic and gradient methods, including column washing and equilibration periods at the end (0 min: 100% A, 0.12 mL/min; 60 min: 100% A, 0.12 mL/min; 70 min: 70% A, 0.5 mL/min; 145 min: 70% A, 0.5 mL/min; 150 min: 100% A, 0.5 mL/min; 164 min, 100% A, 0.5 mL/min; 165 min, 100% A, 0.12 mL/min; 170 min, 100% A, 0.12 mL/min).

Structure (SMILES): CCCC(=O)O [Butyrate]
- mRNA expression of HIF-1α targets Bnip3, Bnip3l, Glut1 (murine colon tissue; colon tissue, rectal 100 mM butyrate or 1.5 mM IOX2, 1 h): rescued
- mRNA expression of HIF-1α targets Bnip3, Bnip3l, Glut1, butyrate with MCPA (murine colon tissue; colon tissue, rectal 100 mM butyrate with 10 mM MCPA, 1 h): rescued
- colon tissue 2-OG levels (murine colon tissue; rectal 100 mM butyrate or 1.5 mM IOX2, 1 h): rescued
- 2-OG levels compared to control (T84 cells; 10 mM butyrate or 30 μM IOX2): significantly increased
- 2-OG levels in the presence of MCPA (T84 cells; 10 mM butyrate with 1 mM MCPA): significantly increased
